Experimental data from patent US11835523B2, “Assays for improving automated antimicrobial susceptibility testing accuracy” (priority 2018, dated 2023).

Legend:
Type in all cases: cell-based
beta lactamase = test: Beta-lactamase inhibitor assay with nitrocefin probe (Example 1, FIG. 1); conditions: 4 μg/mL inhibitor, 0.25 mg/mL nitrocefin, 35° C., 4 hours
Protocol: By comparing the signal from an “inhibited” well to one containing the probe and microbes alone, the efficacy of the inhibitor may be tested.
Microbes were prepared by diluting colonies into saline to reach a McFarland value of 0.5, which was verified using a spectrophotometer. This was diluted 1:20 into saline and 50 μI of inoculum was added to wells of a 384-well plate. For each strain, 25 μI of solutions containing either 0.25 mg/mL nitrocefin alone (Nitro), 0.25 mg/mL nitrocefin and 4 μg/mL clauvulanate (Nitro Clay), or 0.25 mg/mL nitrocefin and 4 μg/mL tazobactam (Nitro Tazo) were added to duplicate wells. Inoculated plates were incubated at 35° C., shaking at 150 rpm for 4 hours. Absorbance was read at 490 nm and values shown in FIG. 1 are the absorbance in the indicated condition minus the absorbance from microbial inoculum alone without nitrocefin. A greater value indicates microbial ability to degrade nitrocefin, and thus, the presence of a beta lactamase. A reduction in absorbance value in the presence of an inhibitor indicates the beta lactamase present is sensitive to the inhibitor.

E. coli = test: Acidimetric carbapenemase assay, four wells, intact microbes (Example 2); design: key: Normalized activity = (Well1−Well2)−(Well3−Well4), pH indicator signal; conditions: 5 mg/mL imipenem solution added 1:1, 4 hours
From the text: (§1) In an exemplary embodiment, the assay comprises a minimum of 4 wells and utilizes a sample comprising intact microbes. The first well (Well1) comprises a medium such as a buffered saline solution or a nutrient broth, a carbapenem, ionic zinc, and a pH indictor. The second well (Well2) comprises the medium, a carbapenem, ionic zinc, a pH indictor, and a microbe sample comprising <1×10^8 CFU microbes. The third well (Well3) comprises the medium, ionic zinc, and a pH indictor. The fourth well (Well4) comprises the medium, ionic zinc, a pH indictor, and a microbe sample comprising <1×10^8 CFU microbes. The following formula can then be utilized to normalize the result: Normalized Activity=(Well1−Well2)−(Well3−Well4) [Formula 1]
(§2) The above says that imipenem degradation is the change in pH (e.g. loss of signal) due to the presence of microbes less the change in pH (e.g. loss of signal) due to microbes in solution only.
(§3) Example 2. Microbes were prepared by diluting colonies into saline to reach a McFarland value of 0.5, which was verified using a spectrophotometer. 100 μL of the microbe solution was added to each of 2 wells in a 96-well plate. 100 μL of saline was added to 2 separate wells on the plate. 100 μL of an imipenem solution containing 5 mg/mL imipenem, 0.1 mM ZnSO4, and 10 μM Fluorescein Na salt, pH 8, was added to one of the microbe-containing wells (Well2) and one of the saline wells (Well1). 100 μL of a negative control solution containing 0.1 mM ZnSO4, and 10 μM Fluorescein Na salt pH 7.5, was added to one of the microbe-containing wells (Well4) and one of the saline wells (Well3). Plates were incubated, shaking at 35° C. for 4 hours and fluorescence of the wells was read at […]. The values reported were calculated to determine the hydrolysis of imipenem by the microbes using Equation 1.

K. pneumoniae = test: as above; conditions: 5 mg/mL imipenem solution added 1:1, 4 hours
From the text: as §1, §2, §3

K pneumoniae [1] = test: Carbapenemase assay at various concentrations of imipenem (Example 3); design: unit not given here; conditions: within 4 hours
From the text: as §1
(§4) Example 3. Microbes were prepared by diluting colonies into saline to reach a McFarland value of 0.5, which was verified using a spectrophotometer. 25 μL of the microbe solution was added to each of 2 wells in a 384-well plate. 25 μL of saline was added to 2 separate wells on the plate. 25 μL of an imipenem solution containing imipenem, 0.1 mM ZnSO4, and 10 μm Fluorescein Na Salt, pH 8, was added to one of the microbe-containing wells (Well2) and one of the saline wells […]. 25 μL of a negative control solution containing 0.1 mM ZnSO4, and 10 μM Fluorescein Na Salt, pH 7.5, was added to one of the microbe containing wells (Well4) and one of the saline wells (Well3). Plates were incubated, shaking at 35° C. for 3 hours and fluorescence of the wells was read at Em=490/Ex=510. This organization of the assay was performed multiple times, varying the concentration of imipenem in solution. The assay was run with final imipenem concentrations of 50 μg/mL, 125 μg/mL, 250 μg/mL, 500 μg/mL, 1250 μg/mL, and 2500 μg/mL. The values reported were calculated to determine the hydrolysis of imipenem by the microbes using Equation 1.

K pneumoniae [2] = test: Carbapenemase assay performed with dried reagents (Example 4); conditions: 4 hours
From the text: as §1
(§5) Example 4. Microbes were prepared by diluting colonies into saline to reach a McFarland value of 0.5, which was verified using a spectrophotometer. 100 μL of the microbe solution was added to each of 2 wells in a vacuum-dried 96-well plate (Well2, Well4). 100 μL of saline was added to 2 separate wells on the plate (Well1 and Well3). Following addition of microbial or saline solutions, the final concentrations of the contents in each well were: 300 μg/mL imipenem, 0.05 mM ZnSO4, and 10 μM Fluorescein Na Salt, pH 7.8, (Well1, Well2); only 0.05 mM ZnSO4 and 10 μM Fluorescein Na Salt, pH 7.8, were present in the third and four wells (Well3, Well4). Plates were incubated, shaking at 35° C. for 4 hours and fluorescence of the wells was read at Em=490/Ex=510. The values reported were calculated to determine the hydrolysis of imipenem by the microbes using Equation 1.

E coli [3] = test: as above; conditions: E coli ATCC 25922, known carbapenemase none, 300 μg/mL imipenem, 4 hours
From the text: as §1, §5

E coli [4] = test: Carbapenemase assay at various concentrations of imipenem (Example 3); conditions: within 4 hours
From the text: as §1, §4

## C[C@]1(Cn2ccnn2)[C@H](C(=O)O)N2C(=O)C[C@H]2S1(=O)=O [tazobactam]
Beta lactamase
  inhibitor activity against strains with known beta lactamases (reduction in nitrocefin absorbance at 490 nm): active

## O=C(O)[C@H]1/C(=C/CO)O[C@@H]2CC(=O)N21 [clauvulanate]
Beta lactamase
  inhibitor activity against strains with known beta lactamases (reduction in nitrocefin absorbance at 490 nm): active

## C[C@@H](O)[C@H]1C(=O)N2C(C(=O)O)=C(SCCN=CN)C[C@H]12 [imipenem]
E. coli; E. coli 25922, known carbapenemase none
  Carbapenemase Activity: −2106.4115
E. coli; E. coli AEL18, known carbapenemase none
  Carbapenemase Activity: −1551.4885
E. coli; E. coli AEL19, known carbapenemase none
  Carbapenemase Activity: −696.4825
E. coli; E. coli AEL 20, known carbapenemase none
  Carbapenemase Activity: −882.3165
E. coli; E. coli AR0346, known carbapenemase none, ESBL +
  Carbapenemase Activity: −2560.861
E. coli; E. coli AR0348, known carbapenemase none
  Carbapenemase Activity: −2960.1665
E. coli; E. coli AR0349, known carbapenemase none, ESBL +
  Carbapenemase Activity: −2861.008
E. coli; E. coli CDC BIT 01, known carbapenemase KPC
  Carbapenemase Activity: 8803.9255
E. coli; E. coli CDC CNP 27, known carbapenemase none, ESBL +
  Carbapenemase Activity: −2401.2335
E. coli; E. coli CDC CNP 38, known carbapenemase NDM
  Carbapenemase Activity: 19534.8825
E. coli; E. coli CDC CNP 54, known carbapenemase none, Amp beta lactamase
  Carbapenemase Activity: −1950.443
E. coli; E. coli CDC CNP 73, known carbapenemase KPC
  Carbapenemase Activity: 3480.1845
E. coli; E. coli CDC CRE 03, known carbapenemase KPC-3
  Carbapenemase Activity: 7149.729
E. coli; E. coli CDC CRE 07, known carbapenemase NDM
  Carbapenemase Activity: 27447.359
E. coli; E. coli CDC CRE 17, known carbapenemase NDM
  Carbapenemase Activity: 36400.9235
E. coli; E. coli CDC CRE 26, known carbapenemase NDM
  Carbapenemase Activity: 41326.61
E. coli; E. coli SML 19, known carbapenemase none
  Carbapenemase Activity: −2540.0545
E. coli; E. coli SML20, known carbapenemase none
  Carbapenemase Activity: −2734.3825
E. coli; E. coli TRICORE 71, known carbapenemase none
  Carbapenemase Activity: −1138.2225
E. coli; E. coli TRICORE 72, known carbapenemase none
  Carbapenemase Activity: −2554.797
K. pneumoniae; K. pneumoniae 700603, known carbapenemase none
  Carbapenemase Activity: −2659.8725
K. pneumoniae; K. pneumoniae CDC CNP 03, known carbapenemase IMP
  Carbapenemase Activity: 3662.106
K. pneumoniae; K. pneumoniae CDC CNP 08, known carbapenemase OXA-181
  Carbapenemase Activity: 1323.2385
K. pneumoniae; K. pneumoniae CDC CNP 09, known carbapenemase VIM
  Carbapenemase Activity: 2315.76
K. pneumoniae; K. pneumoniae SML86, known carbapenemase none
  Carbapenemase Activity: −1861.1485
K. pneumoniae; K. pneumoniae SML87, known carbapenemase none
  Carbapenemase Activity: −3075.4205
K pneumoniae [1]; K pneumoniae AR 34, known carbapenemase IMP, 50 μg/mL imipenem
  Carbapenemase Activity in various concentrations of imipenem: 1034.5
K pneumoniae [1]; K pneumoniae AR 34, known carbapenemase IMP, 125 μg/mL imipenem
  Carbapenemase Activity in various concentrations of imipenem: 2776.5
K pneumoniae [1]; K pneumoniae AR 34, known carbapenemase IMP, 250 μg/mL imipenem
  Carbapenemase Activity in various concentrations of imipenem: 2456.5
K pneumoniae [1]; K pneumoniae AR 34, known carbapenemase IMP, 500 μg/mL imipenem
  Carbapenemase Activity in various concentrations of imipenem: 1807.5
K pneumoniae [1]; K pneumoniae AR 34, known carbapenemase IMP, 1250 μg/mL imipenem
  Carbapenemase Activity in various concentrations of imipenem: 1148
K pneumoniae [1]; K pneumoniae AR 34, known carbapenemase IMP, 2500 μg/mL imipenem
  Carbapenemase Activity in various concentrations of imipenem: 637.5
K pneumoniae [1]; K pneumoniae ATCC BAA-2342, known carbapenemase KPC, 50 μg/mL imipenem
  Carbapenemase Activity in various concentrations of imipenem: 1817
K pneumoniae [1]; K pneumoniae ATCC BAA-2342, known carbapenemase KPC, 125 μg/mL imipenem
  Carbapenemase Activity in various concentrations of imipenem: 4702.5
K pneumoniae [1]; K pneumoniae ATCC BAA-2342, known carbapenemase KPC, 250 μg/mL imipenem
  Carbapenemase Activity in various concentrations of imipenem: 4270.5
K pneumoniae [1]; K pneumoniae ATCC BAA-2342, known carbapenemase KPC, 500 μg/mL imipenem
  Carbapenemase Activity in various concentrations of imipenem: 3708
K pneumoniae [1]; K pneumoniae ATCC BAA-2342, known carbapenemase KPC, 1250 μg/mL imipenem
  Carbapenemase Activity in various concentrations of imipenem: 3251
K pneumoniae [1]; K pneumoniae ATCC BAA-2342, known carbapenemase KPC, 2500 μg/mL imipenem
  Carbapenemase Activity in various concentrations of imipenem: 3114.5
K pneumoniae [2]; K pneumoniae ATCC 700603, known carbapenemase none, 300 μg/mL imipenem
  Carbapenemase Activity: −2026
K pneumoniae [2]; K pneumoniae ATCC BAA-1705, known carbapenemase KPC2, 300 μg/mL imipenem
  Carbapenemase Activity: 19742
K pneumoniae [2]; K pneumoniae ATCC BAA-2814, known carbapenemase KPC3, 300 μg/mL imipenem
  Carbapenemase Activity: 18057
E coli [3]
  Carbapenemase Activity: −6116
E coli [4]; E coli AR 69, known carbapenemase NDM, 50 μg/mL imipenem
  Carbapenemase Activity in various concentrations of imipenem: 1111
E coli [4]; E coli AR 69, known carbapenemase NDM, 125 μg/mL imipenem
  Carbapenemase Activity in various concentrations of imipenem: 3367
E coli [4]; E coli AR 69, known carbapenemase NDM, 250 μg/mL imipenem
  Carbapenemase Activity in various concentrations of imipenem: 2827
E coli [4]; E coli AR 69, known carbapenemase NDM, 500 μg/mL imipenem
  Carbapenemase Activity in various concentrations of imipenem: 2300.5
E coli [4]; E coli AR 69, known carbapenemase NDM, 1250 μg/mL imipenem
  Carbapenemase Activity in various concentrations of imipenem: 1908.5
E coli [4]; E coli AR 69, known carbapenemase NDM, 2500 μg/mL imipenem
  Carbapenemase Activity in various concentrations of imipenem: 1902.5
E coli [4]; E coli AR 114, known carbapenemase KPC3, 50 μg/mL imipenem
  Carbapenemase Activity in various concentrations of imipenem: 930.5
E coli [4]; E coli AR 114, known carbapenemase KPC3, 125 μg/mL imipenem
  Carbapenemase Activity in various concentrations of imipenem: 3793.5
E coli [4]; E coli AR 114, known carbapenemase KPC3, 250 μg/mL imipenem
  Carbapenemase Activity in various concentrations of imipenem: 3342.5
E coli [4]; E coli AR 114, known carbapenemase KPC3, 500 μg/mL imipenem
  Carbapenemase Activity in various concentrations of imipenem: 2784.5
E coli [4]; E coli AR 114, known carbapenemase KPC3, 1250 μg/mL imipenem
  Carbapenemase Activity in various concentrations of imipenem: 2173.5
E coli [4]; E coli AR 114, known carbapenemase KPC3, 2500 μg/mL imipenem
  Carbapenemase Activity in various concentrations of imipenem: 1825.5
E coli [4]; E coli ATCC 25922, known carbapenemase none, 50 μg/mL imipenem
  Carbapenemase Activity in various concentrations of imipenem: −70.5
E coli [4]; E coli ATCC 25922, known carbapenemase none, 125 μg/mL imipenem
  Carbapenemase Activity in various concentrations of imipenem: −522
E coli [4]; E coli ATCC 25922, known carbapenemase none, 250 μg/mL imipenem
  Carbapenemase Activity in various concentrations of imipenem: −599.5
E coli [4]; E coli ATCC 25922, known carbapenemase none, 500 μg/mL imipenem
  Carbapenemase Activity in various concentrations of imipenem: −558.5
E coli [4]; E coli ATCC 25922, known carbapenemase none, 1250 μg/mL imipenem
  Carbapenemase Activity in various concentrations of imipenem: −463.5
E coli [4]; E coli ATCC 25922, known carbapenemase none, 2500 μg/mL imipenem
  Carbapenemase Activity in various concentrations of imipenem: −282
